Test [1] deals with T1, RIPK1 kinase (Homo sapiens, UniProt Q13546).
T1 construct: purchased Promega VA7593
T1 sequence (Q13546 1-671): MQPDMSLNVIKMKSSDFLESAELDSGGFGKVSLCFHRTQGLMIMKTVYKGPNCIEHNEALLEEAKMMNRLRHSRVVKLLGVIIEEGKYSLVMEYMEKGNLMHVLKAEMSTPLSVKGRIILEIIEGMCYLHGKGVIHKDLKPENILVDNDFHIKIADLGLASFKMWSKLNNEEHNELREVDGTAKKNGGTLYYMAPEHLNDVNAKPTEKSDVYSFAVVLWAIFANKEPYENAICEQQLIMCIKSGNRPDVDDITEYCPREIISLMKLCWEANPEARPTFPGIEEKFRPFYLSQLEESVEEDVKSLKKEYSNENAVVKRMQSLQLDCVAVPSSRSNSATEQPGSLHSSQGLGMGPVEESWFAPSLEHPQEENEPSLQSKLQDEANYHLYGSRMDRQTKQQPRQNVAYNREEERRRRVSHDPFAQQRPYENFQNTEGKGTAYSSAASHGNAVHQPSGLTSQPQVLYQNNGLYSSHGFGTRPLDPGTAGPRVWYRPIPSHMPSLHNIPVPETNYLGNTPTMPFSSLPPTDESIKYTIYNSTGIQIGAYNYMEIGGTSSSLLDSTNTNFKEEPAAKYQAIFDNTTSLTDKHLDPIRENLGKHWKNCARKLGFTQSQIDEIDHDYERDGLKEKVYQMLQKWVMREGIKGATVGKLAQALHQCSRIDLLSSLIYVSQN
The test can be described thus: In vitro RIPK1 kinase activity IC50 assay (ADP-Glo). It counts as biochemical. Particulars: ATP 10 μM; MBP substrate 100 μg/mL; 8 concentration points; read-out: IC50 range of compounds for RIPK1 kinase activity. A digest of the protocol: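 Human RIPK1 preincubated 15 min at room temperature with compound (8-point 1:5 dilution series, 1% DMSO in kinase buffer D). Reaction then ran 1 h with 10 μM ATP and 100 μg/mL MBP substrate; ADP measured by ADP-Glo luminescence, IC50 from four-parameter nonlinear fit.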
Background: In ADP-Glo the light output rises with the ADP produced.

For test [2], the system named is U937 cells. Briefly: EC50 of necroptosis inhibition in U937 cells (TSZ-induced, CellTiter-Glo). Type of test: cell-based. To be noted: Homo sapiens, U-937; TSZ (hTNF-α, SM-164, Z-VAD-FMK) 20 hours; 10 concentration points; read-out: EC50 intervals of necroptosis inhibition in U937 cells. A digest of the protocol: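 Luminescent ATP readout (CellTiter-Glo) after 20 h gave viability of TSZ-challenged U937 cells; compounds were added 15 min ahead of TNF-α/SM-164/Z-VAD-FMK. EC50 derived by variable-slope nonlinear regression of inhibition relative to no-TSZ and TSZ-alone controls.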
A general note: Cellular ATP, detected with luciferase, serves as a proxy for viable cell number.

The values that follow come from patent US20250368633A1, “AZEPINE FUSED RING COMPOUND AS RIPK1 INHIBITOR AND USE THEREOF” (ARTIVILA BIOPHARMA, priority 2022, published 2025).

For orientation: IC50 means the midpoint of a concentration-inhibition curve. The term EC50 denotes the concentration giving half of the maximal effect.

Structures are written as SMILES.

For `C[C@@H](NC(=O)C(=O)N[C@H]1COc2ccc(C#CCN3C(=O)CCC3=O)cc2N(C)C1=O)c1ccccc1` [Example 144, N^1-((S)-7-(3-(2,5-dioxopyrrolidin-1-yl)prop-1-yn-1-yl)-5-methyl-4-oxo-2,3,4,5-tetrahydrobenzo[b][1,4]oxazepin-3-yl)-N^2-((R)-1-phenylethyl)oxalamide], the IC50 in test [1] is under 100 nM. For the same compound, the EC50 in test [2] was under 100 nM.

Regarding `C[C@@H](NC(=O)C(=O)N[C@H]1COc2ccc(C#CCN3CCNC(=O)C3)cc2N(C)C1=O)c1ccccc1` [Example 145, N^1-((S)-5-methyl-4-oxo-7-(3-(3-oxopiperazin-1-yl)prop-1-yn-1-yl)-2,3,4,5-tetrahydrobenzo[b][1, 4]oxazepin-3-yl)-N^2-((R)-1-phenylethyl)oxalamide], the IC50 in test [1] was under 100 nM. In addition, the half-maximal effective concentration (EC50) in test [2] is under 100 nM.

Regarding `C[C@@H](NC(=O)C(=O)N[C@H]1COc2ccc(C#CCN(C)C)cc2N(C)C1=O)c1ccccc1` [Example 146, N^1-((S)-7-(3-(dimethylamino)prop-1-yn-1-yl)-5-methyl-4-oxo-2,3,4,5-tetrahydrobenzo[b][1,4]oxazepin-3-yl)-N^2-((R)-1-phenylethyl)oxalamide], the IC50 in test [1] was under 100 nM. Besides, the concentration giving a half-maximal response (EC50) in test [2] is under 100 nM.

For the compound `C[C@@H](NC(=O)C(=O)N[C@H]1COc2ccc(C#CC3CN(CC#N)C3)cc2N(C)C1=O)c1ccccc1` [Example 148, N^1-((S)-7-((1-(cyanomethyl)azetidin-3-yl)ethynyl)-5-methyl-4-oxo-2,3,4,5-tetrahydrobenzo[b][1, 4]oxazepin-3-yl)-N^2-((R)-1-phenylethyl)oxalamide], the IC50 in test [1] was under 100 nM. Moreover, the EC50 in test [2] was under 100 nM.

In the case of `C[C@@H](CNC(=O)C(=O)N[C@H]1COc2ccc(C#CCCO)cc2N(C)C1=O)c1ccccc1` [Example 155, N^1-((S)-7-(4-hydroxybut-1-yn-1-yl)-5-methyl-4-oxo-2,3,4,5-tetrahydrobenzo[b][1,4]oxazepin-3-yl)-N^2-((R)-2-phenylpropyl)oxalamide], the concentration for half-maximal inhibition (IC50) in test [1] is under 100 nM. Further, the half-maximal effective concentration (EC50) in test [2] was under 100 nM.

In the case of `C[C@H](CNC(=O)C(=O)N[C@H]1COc2ccc(C#CCCO)cc2N(C)C1=O)c1ccccc1` [Example 156, N^1-((S)-7-(4-hydroxybut-1-yn-1-yl)-5-methyl-4-oxo-2,3,4,5-tetrahydrobenzo[b][1,4]oxazepin-3-yl)-N^2-((S)-2-phenylpropyl)oxalamide], the IC50 in test [1] is under 100 nM. The EC50 in test [2] was under 100 nM.

`C[C@@H](CNC(=O)C(=O)N[C@H]1COc2ccc(C#CC3(O)COC3)cc2N(C)C1=O)c1ccccc1` [Example 158, N^1-((S)-7-((3-hydroxyoxetan-3-yl)ethynyl)-5-methyl-4-oxo-2,3,4,5-tetrahydrobenzo[b][1,4]oxazepin-3-yl)-N^2-((R)-2-phenylpropyl)oxalamide]: the IC50 in test [1] is under 100 nM. Besides, the EC50 in test [2] was under 100 nM.

For `C[C@@H](CNC(=O)C(=O)N[C@H]1COc2ccc(C#CCN3CCOCC3)cc2N(C)C1=O)c1ccccc1` [Example 159, N^1-((S)-5-methyl-7-(3-morpholinoprop-1-yn-1-yl)-4-oxo-2,3,4,5-tetrahydrobenzo[b][1,4]oxazepin-3-yl)-N^2-((R)-2-phenylpropyl)oxalamide], the IC50 in test [1] was under 100 nM. Besides, the EC50 in test [2] was under 100 nM.

As for `CN1C(=O)C(NC(=O)C(=O)NCCc2cccc(F)c2)CCc2ccc(C#CCCO)cc21` (stereo not drawn) [Example 167, N^1-(3-fluorophenethyl)-N^2-(8-(4-hydroxybut-1-yn-1-yl)-1-methyl-2-oxo-2,3,4,5-tetrahydro-1H-benzo[b]azepin-3-yl)oxalamide], the IC50 in test [1] was under 100 nM. Moreover, the EC50 in test [2] is under 100 nM.
